Data on one compound can be found in US11571480B2, “Multi-ligand drug conjugates and uses thereof” (priority 2015, dated 2023).

SMILES strings stand for the structures. Square brackets hold non-standard residues; d marks the D form. Peptide text beside a SMILES is read from it. * marks the point of attachment. Dolaproine = CO[C@@H]([C@@H]1CCCN1)[C@@H](C)C(=O)O; Dil = CC[C@H](C)[C@H](NC)[C@@H](CC(=O)O)OC; X1 = C[C@@H](N*)[C@@H](O)c1ccccc1; NMeV = CN[C@H](C(=O)O)C(C)C

What all share (assay): Cytotoxicity test of conjugate LDC10B
Common to all, as to type: cell-based

The test system of series [1] is chronic myeloid leukemia cell line K562. The settings on record: K562, Incubation Time 30 min.
Series [2] deals with human gastric cancer cell N87. The conditions noted are these: N87, Incubation Time 30 min.
The test system of series [3] is human lung cancer cell H1299. The conditions noted are these: H1299, Incubation Time 30 min.
Series [4] concerns human lung cancer cell H460. The conditions noted are these: H460, Incubation Time 30 min.

Usually IC50 stands for the concentration that gives 50% inhibition. A low value points to higher potency. `CC[C@H](C)[C@@H]([C@@H](CC(=O)N1CCC[C@H]1[C@H](OC)[C@@H](C)C(=O)N[C@H](C)[C@@H](O)c1ccccc1)OC)N(C)C(=O)[C@@H](NC(=O)[C@@H](NC)C(C)C)C(C)C` [MMAE] (H-[NMeV]V[Dil][Dolaproine]-X1): the IC50 in series [1] worked out at 0.54 nM; in series [2] it was 0.68 nM; in series [3] it was 0.86 nM; in series [4], 0.77 nM.
